Data published in US7192906B2, “Substituted pyrazole derivatives, production process thereof, and herbicide compositions containing the derivatives” (SDS Biotech K.K., priority 2001, dated 2007).

Tested on: soybean (Glycine max)
Test: Test Example 2 upland soil treatment, crop phytotoxicity
Assay type: in vivo
Details: Table 5, upland soil treatment, index 0-5
Experimental: (§1) A plastic pot of 130 cm^2 was filled with upland soil. Subsequently, weed seeds of Setaria viridis, Digitaria adscendens, Chenopodium album and Stellaria media, and crop seeds of soybean (Glycine max) and wheat (Triticum aestivum), were sowed and covered with soil of about 1 cm thickness. On the next day after the sowing, the wettable powder prepared in Formulation Example 1 was diluted with water such that the amount of the active ingredient became 1 kg per hectare, and then uniformly applied to the soil surface. On the 21st day after the application, observation and evaluation were carried out according to the aforesaid criteria.
(§2) Herbicidal activity was evaluated based on the following criteria.
(§3) • 5: herbicidal effect of not less than 90%, or phytotoxicity of 90% or more • 4: herbicidal effect of not less than 70% and less than 90%, or phytotoxicity of 70% or more and less than 90% • 3: herbicidal effect of not less than 50% and less than 70%, or phytotoxicity of 50% or more and less than 70% • 2: herbicidal effect of not less than 30% and less than 50%, or phytotoxicity of 30% or more and less than 50% • 1: herbicidal effect of not less than 10% and less than 30%, or phytotoxicity of 10% or more and less than 30% • 0: herbicidal effect of not less than 0% and less than 10%, or phytotoxicity of 0% or more and less than 10%

Compound	Herbicidal activity (phytotoxicity) GM: Soybean (Glycine max)
CNC(=O)C(Cn1cc(C)c(-c2ccc(F)c(Br)c2)n1)=NOC [Compound 83]	0 (herbicidal effect of not less than 0% and less than 10%, or phytotoxicity of 0% or more and less than 10%)
CNC(=O)C(Cn1cc(C)c(-c2cc(F)cc(C(F)(F)F)c2)n1)=NOC [Compound 88]	0 (herbicidal effect of not less than 0% and less than 10%, or phytotoxicity of 0% or more and less than 10%)
CCN(CC)C(=O)C(Cn1cc(C)c(-c2ccccc2)n1)=NOC [Compound 94]	0 (herbicidal effect of not less than 0% and less than 10%, or phytotoxicity of 0% or more and less than 10%)

Tested on: wheat (Triticum aestivum)
Test: as above
Assay type: in vivo
Details: Table 5, upland soil treatment, index 0-5
Experimental: as §1, §2, §3

Compound	Herbicidal activity (phytotoxicity) TA: Wheat (Triticum aestivum)
CNC(=O)C(Cn1cc(C)c(-c2ccc(F)c(Br)c2)n1)=NOC [Compound 83]	0 (herbicidal effect of not less than 0% and less than 10%, or phytotoxicity of 0% or more and less than 10%)
CNC(=O)C(Cn1cc(C)c(-c2cc(F)cc(C(F)(F)F)c2)n1)=NOC [Compound 88]	0 (herbicidal effect of not less than 0% and less than 10%, or phytotoxicity of 0% or more and less than 10%)
CCN(CC)C(=O)C(Cn1cc(C)c(-c2ccccc2)n1)=NOC [Compound 94]	0 (herbicidal effect of not less than 0% and less than 10%, or phytotoxicity of 0% or more and less than 10%)

Tested on: Chenopodium album
Test: Test Example 1 upland field foliage treatment
Assay type: in vivo
Details: Table 4, upland field foliage treatment, index 0-5
Summary of the method: (§4)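 Scores are visual 0–5 ratings of herbicidal effect or crop injury (0: under 10%; 5: 90% or more) taken 21 days after treatment. Plants grew from seed in upland soil for 14 days, then foliage received the compound as a water-diluted wettable powder at 1 kg/ha active ingredient.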

Compound	Herbicidal activity CA: Chenopodium album
CNC(=O)C(Cn1cc(C)c(-c2ccc(F)c(Br)c2)n1)=NOC [Compound 83]	4 (herbicidal effect of not less than 70% and less than 90%, or phytotoxicity of 70% or more and less than 90%)
CNC(=O)C(Cn1cc(C)c(-c2cc(F)cc(C(F)(F)F)c2)n1)=NOC [Compound 88]	5 (herbicidal effect of not less than 90%, or phytotoxicity of 90% or more)
CCN(CC)C(=O)C(Cn1cc(C)c(-c2ccccc2)n1)=NOC [Compound 94]	5 (herbicidal effect of not less than 90%, or phytotoxicity of 90% or more)

Tested on: Stellaria media
Test: Test Example 1 upland field foliage treatment
Assay type: in vivo
Details: Table 4, upland field foliage treatment, index 0-5
Summary of the method: as §4

Compound	Herbicidal activity SM: Stellaria media
CNC(=O)C(Cn1cc(C)c(-c2ccc(F)c(Br)c2)n1)=NOC [Compound 83]	4 (herbicidal effect of not less than 70% and less than 90%, or phytotoxicity of 70% or more and less than 90%)
CNC(=O)C(Cn1cc(C)c(-c2cc(F)cc(C(F)(F)F)c2)n1)=NOC [Compound 88]	5 (herbicidal effect of not less than 90%, or phytotoxicity of 90% or more)
CCN(CC)C(=O)C(Cn1cc(C)c(-c2ccccc2)n1)=NOC [Compound 94]	5 (herbicidal effect of not less than 90%, or phytotoxicity of 90% or more)

Tested on: Setaria viridis
Test: Test Example 1 upland field foliage treatment
Assay type: in vivo
Details: Table 4, upland field foliage treatment, index 0-5
Summary of the method: as §4

Compound	Herbicidal activity SV: Setaria viridis
CNC(=O)C(Cn1cc(C)c(-c2ccc(F)c(Br)c2)n1)=NOC [Compound 83]	3 (herbicidal effect of not less than 50% and less than 70%, or phytotoxicity of 50% or more and less than 70%)
CNC(=O)C(Cn1cc(C)c(-c2cc(F)cc(C(F)(F)F)c2)n1)=NOC [Compound 88]	4 (herbicidal effect of not less than 70% and less than 90%, or phytotoxicity of 70% or more and less than 90%)
CCN(CC)C(=O)C(Cn1cc(C)c(-c2ccccc2)n1)=NOC [Compound 94]	3 (herbicidal effect of not less than 50% and less than 70%, or phytotoxicity of 50% or more and less than 70%)

Tested on: Digitaria adscendens
Test: Test Example 1 upland field foliage treatment
Assay type: in vivo
Details: Table 4, upland field foliage treatment, index 0-5
Summary of the method: as §4

Compound	Herbicidal activity DA: Digitaria adscendens
CNC(=O)C(Cn1cc(C)c(-c2ccc(F)c(Br)c2)n1)=NOC [Compound 83]	5 (herbicidal effect of not less than 90%, or phytotoxicity of 90% or more)
CNC(=O)C(Cn1cc(C)c(-c2cc(F)cc(C(F)(F)F)c2)n1)=NOC [Compound 88]	5 (herbicidal effect of not less than 90%, or phytotoxicity of 90% or more)
CCN(CC)C(=O)C(Cn1cc(C)c(-c2ccccc2)n1)=NOC [Compound 94]	3 (herbicidal effect of not less than 50% and less than 70%, or phytotoxicity of 50% or more and less than 70%)

Tested on: Chenopodium album
Test: Test Example 2 upland soil treatment
Assay type: in vivo
Details: Table 5, upland soil treatment, index 0-5
Experimental: as §1, §2, §3

Compound	Herbicidal activity CA: Chenopodium album
CNC(=O)C(Cn1cc(C)c(-c2ccc(F)c(Br)c2)n1)=NOC [Compound 83]	5 (herbicidal effect of not less than 90%, or phytotoxicity of 90% or more)
CNC(=O)C(Cn1cc(C)c(-c2cc(F)cc(C(F)(F)F)c2)n1)=NOC [Compound 88]	5 (herbicidal effect of not less than 90%, or phytotoxicity of 90% or more)
CCN(CC)C(=O)C(Cn1cc(C)c(-c2ccccc2)n1)=NOC [Compound 94]	5 (herbicidal effect of not less than 90%, or phytotoxicity of 90% or more)

Tested on: Stellaria media
Test: Test Example 2 upland soil treatment
Assay type: in vivo
Details: Table 5, upland soil treatment, index 0-5
Experimental: as §1, §2, §3

Compound	Herbicidal activity SM: Stellaria media
CNC(=O)C(Cn1cc(C)c(-c2ccc(F)c(Br)c2)n1)=NOC [Compound 83]	5 (herbicidal effect of not less than 90%, or phytotoxicity of 90% or more)
CNC(=O)C(Cn1cc(C)c(-c2cc(F)cc(C(F)(F)F)c2)n1)=NOC [Compound 88]	5 (herbicidal effect of not less than 90%, or phytotoxicity of 90% or more)
CCN(CC)C(=O)C(Cn1cc(C)c(-c2ccccc2)n1)=NOC [Compound 94]	4 (herbicidal effect of not less than 70% and less than 90%, or phytotoxicity of 70% or more and less than 90%)

Tested on: Setaria viridis
Test: Test Example 2 upland soil treatment
Assay type: in vivo
Details: Table 5, upland soil treatment, index 0-5
Experimental: as §1, §2, §3

Compound	Herbicidal activity SV: Setaria viridis
CNC(=O)C(Cn1cc(C)c(-c2ccc(F)c(Br)c2)n1)=NOC [Compound 83]	5 (herbicidal effect of not less than 90%, or phytotoxicity of 90% or more)
CNC(=O)C(Cn1cc(C)c(-c2cc(F)cc(C(F)(F)F)c2)n1)=NOC [Compound 88]	4 (herbicidal effect of not less than 70% and less than 90%, or phytotoxicity of 70% or more and less than 90%)
CCN(CC)C(=O)C(Cn1cc(C)c(-c2ccccc2)n1)=NOC [Compound 94]	3 (herbicidal effect of not less than 50% and less than 70%, or phytotoxicity of 50% or more and less than 70%)

Tested on: Digitaria adscendens
Test: Test Example 2 upland soil treatment
Assay type: in vivo
Details: Table 5, upland soil treatment, index 0-5
Experimental: as §1, §2, §3

Compound	Herbicidal activity DA: Digitaria adscendens
CNC(=O)C(Cn1cc(C)c(-c2ccc(F)c(Br)c2)n1)=NOC [Compound 83]	5 (herbicidal effect of not less than 90%, or phytotoxicity of 90% or more)
CNC(=O)C(Cn1cc(C)c(-c2cc(F)cc(C(F)(F)F)c2)n1)=NOC [Compound 88]	4 (herbicidal effect of not less than 70% and less than 90%, or phytotoxicity of 70% or more and less than 90%)
CCN(CC)C(=O)C(Cn1cc(C)c(-c2ccccc2)n1)=NOC [Compound 94]	3 (herbicidal effect of not less than 50% and less than 70%, or phytotoxicity of 50% or more and less than 70%)

Tested on: soybean (Glycine max)
Test: Test Example 1 upland field foliage treatment, crop phytotoxicity
Assay type: in vivo
Details: Table 4, upland field foliage treatment, index 0-5
Summary of the method: as §4

Compound	Herbicidal activity (phytotoxicity) GM: Soybean (Glycine max)
CNC(=O)C(Cn1cc(C)c(-c2ccc(F)c(Br)c2)n1)=NOC [Compound 83]	0 (herbicidal effect of not less than 0% and less than 10%, or phytotoxicity of 0% or more and less than 10%)
CNC(=O)C(Cn1cc(C)c(-c2cc(F)cc(C(F)(F)F)c2)n1)=NOC [Compound 88]	0 (herbicidal effect of not less than 0% and less than 10%, or phytotoxicity of 0% or more and less than 10%)
CCN(CC)C(=O)C(Cn1cc(C)c(-c2ccccc2)n1)=NOC [Compound 94]	0 (herbicidal effect of not less than 0% and less than 10%, or phytotoxicity of 0% or more and less than 10%)

Tested on: wheat (Triticum aestivum)
Test: as above
Assay type: in vivo
Details: Table 4, upland field foliage treatment, index 0-5
Summary of the method: as §4

Compound	Herbicidal activity (phytotoxicity) TA: Wheat (Triticum aestivum)
CNC(=O)C(Cn1cc(C)c(-c2ccc(F)c(Br)c2)n1)=NOC [Compound 83]	0 (herbicidal effect of not less than 0% and less than 10%, or phytotoxicity of 0% or more and less than 10%)
CNC(=O)C(Cn1cc(C)c(-c2cc(F)cc(C(F)(F)F)c2)n1)=NOC [Compound 88]	0 (herbicidal effect of not less than 0% and less than 10%, or phytotoxicity of 0% or more and less than 10%)
CCN(CC)C(=O)C(Cn1cc(C)c(-c2ccccc2)n1)=NOC [Compound 94]	0 (herbicidal effect of not less than 0% and less than 10%, or phytotoxicity of 0% or more and less than 10%)
